Experiments:
Assay type in all cases: cell-based, human
[1] = system: p53; experiment: High resolution profiling (P-FILM) of p53 in MDA MB-468 cells; conditions: 100 μg/mL
Procedure: Both p53 and pRb contain multiple phosphorylation sites, and evaluating each site separately provides a more accurate indication of each protein's potential function. Therefore, a high resolution functional profiling of the proteins was performed using P-FILM technology (20/20 Gene Systems, Inc.).
The same protein samples as those used for PDVF membrane blotting were used. Ten μg of each protein sample of MDA MB-231 cells, and in some cases MDA MB-468 and MCF-7 cells, treated with 100 μg /mL of pentamer or DMSO-treated controls, were separated by PAGE on 4-20% gradient gels (BioRad). Proteins were transferred on a stack of ten membranes, according to manufacturer's instructions (20/20 Gene Systems, Inc.). The membranes were probed with antibodies recognizing total and phosphorylated p53 (p53Ser6, Ser9, Ser15, Ser20, Ser37, Ser46 and Ser392) at 1:1000 dilution as recommended by the manufacturer (Cell Signaling). The secondary antibody used in all cases was anti-rabbit polyclonal 1:2000 (Amersham). Signals were visualized on BIOMAX MR film (Kodak). The profiling of pRb was done using anti-phospho pRb (Ser780, Ser 795 and Ser 807/811) and anti-pRb polyclonal antibody (Cell Signaling) at a 1:1000 dilution. The secondary antibody used in all cases was anti-rabbit at 1:2000 dilution (Amersham). Image analysis was performed with Kodak 1D image analysis software. Background corrected intensity values were normalized for loading by using GAPDH intensities. Numerical analysis was performed in Excel.

[2] = system: normal mortal HMECs; experiment: Crystal violet cellular proliferation assay; conditions: 100 μg/mL
Text: Immortalized human mammary epithelial cells (HMECs), MCF-10A, 184A1N4 and 184B5, normal, finite-life-span HMECs (1001-8, CC-2551) at passage 8, originally derived from mammoplasty breast tissues, were purchased from Clonetics-BioWhittaker, Inc. (Waskersville, Md.). Cell lines generated by introduction of c-MYC, ErbB2 and RAS oncogene into MCF-10A cells (MCF-10A-ErbB2/Ras cells and MCF-10A-c-Myc) were also used.
Normal mortal HMECs were maintained according to the supplier's instructions in mammary epithelial cell growth medium (CC-3152) (Clonetics) supplemented with 52 μg of bovine pituitary extract per ml, 10 ng/mL of human EGF, 5 μg/mL of insulin, and 0.5 μg/mL of hydrocortisone and were grown in 37° C. incubators with low (0.1 to 0.2%) CO2 settings.
One×10^3 cells per well were seeded in 96 well dishes (Coming Costar, Cambridge, Mass.). Primary cultures of HMECs, A1N4 and 184B5 cells were evaluated at two different cell densities (seeded at 1×10^3 and 2×10^3 per well). […]
Cells were treated for 1, 2, 3, 6, 8 and 10 days, but in some cases, the samples were collected at days 2, 3, 4, 7 and 10 post-treatment. […] The optical density (OD) of samples was read at 550 nm on an Ultramark Microplate Imagining System (BioRad, Philadelphia, Pa.). […] Statistical significance was determined using the t test analysis.

[3] = system: AIN4 cells; experiment: Mitochondrial membrane potential depolarization (ApoAlert, flow cytometry)
Procedure: (§1) Mitochondrial membrane potential was determined using ApoAlert™ Mitochondrial Membrane Sensor Kit (Clonetech Inc., Palo Alto, Calif.). The MDA MB-231, MCF-7, MDA MB-468, MDA MB-436, SKBR-3, MCF-10A, MCF-10A-c-Myc and AIN4 cells were grown, in appropriate media, to 60-70% confluence in 25 cm^2 dishes. The following day, the complete media was replaced with complete media containing (i) pentamer (100 μg/mL, or in some cases with 25 μg/mL), (ii) media with DMSO, or (iii) media only. Initially, cells were grown in the presence of pentamer for 1, 2, 3, 6, 12 and 24 hrs but only 1, 2 and 6 hrs treatments were selected for subsequent studies. All floating and adherent cells were combined, and then the cells were aliquoted into flow cytometry tubes. Approximately, 1×10^6 cells per tube were analyzed, according to the manufacturer's instructions. Samples were analyzed at the Lombardi Comprehensive Cancer Center Core Flow Cytometry Shared Resource Facility.

[4] = system: MCF-7 cells; experiment: as above; conditions: several attempts, different passages
Procedure: as §1

[5] = system: MDA MB-436 cells; experiment: as above
Procedure: as §1

[6] = system: SKBR-3 cells; experiment: as above
Procedure: as §1

[7] = system: MDA MB-231 cells; experiment: as above
Procedure: as §1

[8] = system: MDA MB-468 cells; experiment: as above
Procedure: as §1

[9] = system: MCF-10A cells; experiment: as above
Procedure: as §1

[10] = pentamer-treated, average of three experiments

Q: Which results are given for Oc1cc(O)c2c(c1)O[C@H](c1ccc(O)c(O)c1)[C@H](O)[C@H]2c1c(O)cc(O)c2c1O[C@H](c1ccc(O)c(O)c1)[C@H](O)[C@H]2c1c(O)cc(O)c2c1O[C@H](c1ccc(O)c(O)c1)[C@H](O)[C@H]2c1c(O)cc(O)c2c1O[C@H](c1ccc(O)c(O)c1)[C@H](O)[C@H]2c1c(O)cc(O)c2c1O[C@H](c1ccc(O)c(O)c1)[C@H](O)C2 [pentamer, pentameric procyanidin]?
A: percentage of p53 phosphorylated at Ser392 decreased, compared to untreated controls ([1]; MD MB-468): 33%; expression of endogenous p53 ([1]; MDA MB-468): not significantly affected; phosphorylation of p53 Ser15 and Ser46 ([1]; MDA MB-468): not significantly affected; growth inhibited, in comparison to DMSO-treated controls [2]: 1.4 fold; MMP depolarization, Fold Increase over DMSO [3]: 3.2; MMP depolarization (%) [3, 10]: 20%; depolarization of the mitochondrial membrane [4]: depolarization could not be demonstrated; MMP depolarization, Fold Increase over DMSO [5]: 5.7; MMP depolarization (%) [5, 10]: 50%; MMP depolarization, Fold Increase over DMSO [6]: 2.5; MMP depolarization (%) [6, 10]: 25%; MMP depolarization, Fold Increase over DMSO [7]: 14.5; depolarization of mitochondrial membrane, time course ([7]; 100 μg/mL, 1, 2 and 6 hours): time-dependent depolarization; depolarization of mitochondrial membrane, dose response ([7]; 25 and 100 μg/mL): dose-dependent response; MMP depolarization (%) [7, 10]: 58%; MMP depolarization, Fold Increase over DMSO [8]: 5; MMP depolarization (%) [8, 10]: 60%; MMP depolarization, Fold Increase over DMSO [9]: 2; MMP depolarization (%) [9, 10]: 20%
